Experimental data published in patent US12447137B2, “Composition for prevention, amelioration, or treatment of cancer” (EWHA UNIVERSITY—INDUSTRY COLLABORATION FOUNDATION, priority 2019, dated 2025).

Tests used:
[1] = tested on: p-AMPK (Thr172); assay: AMPK activation by p-AMPK (Thr172) Western blot in gastric cancer cell lines; type: cell-based, human; details: 10 μM, 12 hours, compared to untreated group
Protocol: (§1) [3-2] The three breast cancer cell lines (4T1, BT549, and MDA-MB-231) of Experimental Method 1 were treated with each of the compound of Production Example 6 and 13 compounds, including the compounds of Production Examples 1 to 5 and 8 to 15 having a similar structure (YE-01, 02, 03, 04, 05, 08, 09, 10, 11, 12, 13, 14 and 15), at a concentration of 10 μM, and then cultured for 24 hours. In addition, each of two types of gastric cancer cell lines, brain cancer cell lines and pancreatic cancer cell lines was treated with the compound of Production Example 6 or the compound of Production Example 8 having a similar structure at a concentration of 10 μM and then cultured for 12 hours. Thereafter, the cells were harvested and lysed in RIPA buffer, and the protein was electrophoresed by SDS-PAGE, and then the expression level of the protein was analyzed using antibodies specific for AMPK and phospho-AMPK (Thr172). GAPDH or β-actin was used as a loading control for protein quantification.

[2] = tested on: p-AMPK (Thr172); assay: AMPK activation by p-AMPK (Thr172) Western blot in brain cancer cell lines; type: cell-based, human; details: 10 μM, 12 hours, compared to untreated group
Protocol: as §1

[3] = tested on: p-AMPK (Thr172); assay: AMPK activation by p-AMPK (Thr172) Western blot in pancreatic cancer cell lines; type: cell-based, human; details: 10 μM, 12 hours, compared to untreated group
Protocol: as §1

[4] = tested on: 4T1 cell line; assay: Cell viability assay (WST-1); type: cell-based; details: Mus musculus; 4T1, 10 μM, 24 hours; FIG. 3A; read-out: cancer cell viability inhibited
Protocol: (§2) [4-1-1] The breast cancer cell line of Experimental Method 1 was treated with 5-aminoimidazole-4-carboxamide ribonucleotide (AICAR) (which is not the compound of Production Example 6) or the compound of Production Example 6 at a concentration of 0 to 30 μM, and then cultured for 24 hours, 48 hours and 72 hours. Thereafter, the cultured cells were treated with WST-1 reagent, and then the absorbance at a wavelength of 450 nm was measured. Here, the WST-1 reagent allows the cell viability to be measured by changing the color of the culture medium depending on the level of the mitochondrial dehydrogenase present in the cell.
(§3) [4-1-2] The breast cancer cell line 4T1, BT549 or MDA-MB-231 of Experimental Method 1 was treated with each of the compound of Production Example 6 and 13 compounds, including the compounds of Production Examples 1 to 5 and 8 to 15 having a similar structure (YE-01, 02, 03, 04, 05, 08, 09, 10, 11, 12, 13, 14 and 15), at a concentration of 0 to 50 μM, and then cultured for 24 hours. Each of three types of gastric cancer cell lines, brain cancer cell lines and pancreatic cancer cell lines was treated with the compound of Production Example 6 or the compound of Production Example 8 having a similar structure at a concentration of 0 to 50 μM, and then cultured for 24 hours. Thereafter, the cultured cells were treated with WST-1 reagent according to the manufacturer's instruction, and after a certain time, the absorbance at a wavelength of 450 nm was measured. Here, the WST-1 reagent allows the cell viability to be measured by changing the color of the culture medium depending on the level of the mitochondrial dehydrogenase present in the cell.

[5] = tested on: BT549 cell line; assay: Cell viability assay (WST-1); type: cell-based; details: Homo sapiens, BT-549; BT549, 10 μM, 24 hours; FIG. 3A; read-out: cancer cell viability inhibited
Protocol: as §2, §3

[6] = tested on: MDA-MB-231 cell line; assay: Cell viability assay (WST-1); type: cell-based; details: Homo sapiens; MDA-MB-231, 10 μM, 24 hours; FIG. 3A; read-out: cancer cell viability inhibited
Protocol: as §2, §3

[7] = tested on: p-AMPK (Thr172); assay: AMPK activation by p-AMPK (Thr172) Western blot in 4T1 cells; type: cell-based, mouse; details: 4T1, 10 μM, 24 hours; FIG. 3B
Protocol: (§4) [3-1] The breast cancer cell line of Experimental Method 1 above was treated with the compound of Production Example 6 at a concentration of 0 to 30 μM, and then cultured for 24 hours. Thereafter, the cells were harvested and lysed in RIPA buffer, and the protein was electrophoresed by SDS-PAGE, and then the expression level of the protein was analyzed using antibodies specific for AMPK and phospho-AMPK (Thr172). GAPDH or β-actin was used as a loading control for protein quantification.
as §1

[8] = tested on: p-AMPK (Thr172); assay: AMPK activation by p-AMPK (Thr172) Western blot in BT549 cells; type: cell-based, human; details: BT549, 10 μM, 24 hours; FIG. 3B
Protocol: as §4
as §1, with “In addition, each of two types of gastric cancer cell lines, brain cancer cell lines and pancreatic cancer cell lines was treated with the compound of Production Example 6 or the compound of Production Example 8 having a similar structure at a concentration of 10 μM and then cultured for 12 hours.” left out

[9] = tested on: p-AMPK (Thr172); assay: AMPK activation by p-AMPK (Thr172) Western blot in MDA-MB-231 cells; type: cell-based, human; details: MDA-MB-231, 10 μM, 24 hours; FIG. 3B
Protocol: as §4, §1

SMILES | expression of p-AMPK [1] | expression of p-AMPK [2] | expression of p-AMPK [3] | cytotoxicity at 10 µM [4] [%] | cytotoxicity at 10 µM [5] [%] | cytotoxicity at 10 µM [6] [%] | p-AMPK level [7] | p-AMPK level [8] | p-AMPK level [9]
NC(=O)c1ncn([C@@H]2O[C@H](COP(=O)(O)O)[C@@H](O)[C@H]2O)c1N [AICAR, 5-aminoimidazole-4-carboxamide ribonucleotide, reference compound] | insignificant effect | insignificant effect | insignificant effect |  |  |  |  |  | 
COc1ccc(OC)c(/C=C/C(=O)c2cccc(NS(=O)(=O)c3ccc(Cl)cc3)c2)c1 [Production Example 8, (E)-4-chloro-N-(3-(3-(2,5-dimethoxyphenyl)acryloyl)phenyl)benzenesulfonamide] | increased | increased | increased | ≥ 50 | ≥ 50 | ≥ 50 | effectively increased | effectively increased | effectively increased
